Assay results reported in patent US20090082203A1, “INSECTICIDAL BIS(SUBSTITUTED PHENYL)-1-{[4-(SATURATED HETEROCYCLYL-SUBSTITUTED)PHENYLMETHYL]- (4-PIPERIDYL)}METHANE DERIVATIVES” (priority 2004, published 2009).

Tested on: tobacco budworm (Heliothis virescens [Fabricius])
Experiment: surface-treated diet test against tobacco budworm
Type: in vivo
Settings: for Percent Growth Inhibition: inhibition of insect weight relative to untreated controls
Description: Candidate insecticides were evaluated for activity against the tobacco budworm (Heliothis virescens [Fabricius]) in a surface-treated diet test.
In this test one mL of molten (65-70° C.) wheat germ-based artificial diet was pipetted into each well of a four by six (24 well) multi-well plate (ID# 430345-15.5 mm dia.×17.6 mm deep; Corning Costar Corp., One Alewife Center, Cambridge, Mass. 02140). The diet was allowed to cool to ambient temperature before treatment with candidate insecticide.
For a determination of insecticidal activity, solutions of the candidate insecticides were prepared for testing using a Packard 204DT Multiprobe® Robotic System (Packard Instrument Company, 800 Research Parkway, Meriden, Conn. 06450), in which the robot first diluted a standard 50 millimolar DMSO solution of candidate insecticide with a 1:1 water/acetone solution (V/V) in a ratio of 1:7 stock solution to water/acetone. The robot subsequently pipetted 40 microliters of the so-prepared solution onto the surface of the diet in each of three wells in the 24 multi-well plate. The process was repeated with solutions of seven other candidate insecticides. Once treated, the contents of the multi-well plate were allowed to dry, leaving 0.25 millimoles of candidate insecticide on the surface of the diet, or a concentration of 0.25 millimolar. Appropriate untreated controls containing only DMSO on the diet surface were also included in this test.
For evaluations of the insecticidal activity of a candidate insecticide at varying rates of application, the test was established as described above using sub-multiples of the standard 50 millimolar DMSO solution of candidate insecticide. For example, the standard 50 millimolar solution was diluted by the robot with DMSO to give 5, 0.5, 0.05, 0.005, 0.0005 millimolar, or more dilute solutions of the candidate insecticide. In these evaluations there were six replicates of each rate of application placed on the surface of the diet in the 24 multi-well plate, for a total of four rates of application of candidate insecticide in each plate.
In each well of the test plate was placed one second instar tobacco budworm larvae, each weighing approximately five milligrams. After the larvae were placed in each well, the plate was sealed with clear polyfilm adhesive tape. The tape over each well was perforated to ensure an adequate air supply. The plates were then held in a growth chamber at 25° C. and 60% relative humidity for five days (light 14 hours/day).
After the five-day exposure period insecticidal activity for each rate of application of candidate insecticide was assessed as percent inhibition of insect weight relative to the weight of insects from untreated controls, and percent mortality when compared to the total number of insects infested.
The test compounds of formula I are identified by numbers that correspond to those in Table 1.

[1] = 0.25 millimolar on the surface of the diet, second instar larvae, five-day exposure, compared to the total number of insects infested
[2] = 0.25 millimolar on the surface of the diet, second instar larvae, five-day exposure

Compound	Percent Mortality [1] [%]	Percent Growth Inhibition [2] [%]	Percent Mortality (in vivo) [%]
CC1(C)OCC(c2ccc(C[N+]3([O-])CCC(C(O)(c4ccc(OC(F)(F)F)cc4)c4ccc(OC(F)(F)F)cc4)CC3)cc2)O1 (stereo not shown) [Compound 77]	100	100	
CCCC1COC(c2ccc(C[N+]3([O-])CCC(C(O)(c4ccc(OC(F)(F)F)cc4)c4ccc(OC(F)(F)F)cc4)CC3)cc2)O1 (stereo not shown) [Compound 74]	100	100	
[O-][N+]1(Cc2ccc(C3(c4ccoc4)OCCO3)cc2)CCC(C(O)(c2ccc(OC(F)(F)F)cc2)c2ccc(OC(F)(F)F)cc2)CC1 (stereo not shown) [Compound 101]	100	100	
CN1CCOC1c1ccc(CN2CCC(C(O)(c3ccc(OC(F)(F)F)cc3)c3ccc(OC(F)(F)F)cc3)CC2)cc1 (stereo not shown) [Compound 90]	100	100	
CC1(C)OCC(COc2ccc(C[N+]3([O-])CCC(C(O)(c4ccc(OC(F)(F)F)cc4)c4ccc(OC(F)(F)F)cc4)CC3)cc2)O1 (stereo not shown) [Compound 190, bis[4-(trifluoromethoxy)phenyl][1-({4-[(2,2-dimethyl-(1,3-dioxolan-4-yl))methoxy]phenyl}methyl)(4-piperidyl)]methan-1-ol, N-oxide]	100	100	
OC(c1ccc(OC(F)(F)F)cc1)(c1ccc(OC(F)(F)F)cc1)C1CCN(Cc2ccc(OCC3OCCO3)cc2)CC1 [Compound 187]	100	100	
CC1COC(c2ccc(CN3CCC(C(O)(c4ccc(OC(F)(F)F)cc4)c4ccc(OC(F)(F)F)cc4)CC3)cc2)O1 (stereo not shown) [Compound 3]	100	100	
CC1OC(c2ccc(CN3CCC(C(O)(c4ccc(OC(F)(F)F)cc4)c4ccc(OC(F)(F)F)cc4)CC3)cc2)OC1C (stereo not shown) [Compound 121]	100	100	
OC(c1ccc(OC(F)(F)F)cc1)(c1ccc(OC(F)(F)F)cc1)C1CCN(Cc2ccc(C3OCCO3)c(F)c2)CC1 [Compound 173]	100	100	
CC1(C)COC(c2ccc(CN3CCC(C(O)(c4ccc(OC(F)(F)F)cc4)c4ccc(OC(F)(F)F)cc4)CC3)cc2)OC1 [Compound 39]	100	100	
CCCCN1CCSC1c1ccc(CN2CCC(C(O)(c3ccc(OC(F)(F)F)cc3)c3ccc(OC(F)(F)F)cc3)CC2)cc1 (stereo not shown) [Compound 59]	100	100	
[O-][N+]1(Cc2ccc(C3OCC=CCO3)cc2)CCC(C(O)(c2ccc(OC(F)(F)F)cc2)c2ccc(OC(F)(F)F)cc2)CC1 (stereo not shown) [Compound 63]	100	100	
OC(c1ccc(OC(F)(F)F)cc1)(c1ccc(OC(F)(F)F)cc1)C1CCN(Cc2ccc(C3OCCO3)c(Cl)c2)CC1 [Compound 171]	100	100	
COCC1COC(c2ccc(C[N+]3([O-])CCC(C(O)(c4ccc(OC(F)(F)F)cc4)c4ccc(OC(F)(F)F)cc4)CC3)cc2)O1 (stereo not shown) [Compound 61]	100	100	
CC1(C)COC(c2ccc(CN3CCC(C(O)(c4ccc(OC(F)(F)F)cc4)c4ccc(OC(F)(F)F)cc4)CC3)cc2)O1 (stereo not shown) [Compound 111]	100	100	
CC1COC(c2ccc(C[N+]3([O-])CCC(C(O)(c4ccc(Cl)c(Cl)c4)c4ccc(Cl)c(Cl)c4)CC3)cc2)O1 (stereo not shown) [Compound 177]	100	100	
[O-][N+]1(Cc2ccc(C3OCC(c4ccccc4)O3)cc2)CCC(C(O)(c2ccc(OC(F)(F)F)cc2)c2ccc(OC(F)(F)F)cc2)CC1 (stereo not shown) [Compound 60]	100	100	
NC1(CO)COC(c2ccc(CN3CCC(C(O)(c4ccc(OC(F)(F)F)cc4)c4ccc(OC(F)(F)F)cc4)CC3)cc2)OC1 (stereo not shown) [Compound 107]	100	100	
CC1COC(c2ccc(CN3CCC(C(O)(c4ccc(OC(F)(F)F)cc4)c4ccc(OC(F)(F)F)cc4)CC3)cc2F)O1 (stereo not shown) [Compound 179]	100	100	

Compound	Percent Mortality [1] [%]	Percent Growth Inhibition [2] [%]	Percent Mortality (in vivo) [%]
OC(c1ccc(OC(F)(F)F)cc1)(c1ccc(OC(F)(F)F)cc1)C1CCN(Cc2ccc(C3OC4CCCCC4O3)cc2)CC1 (stereo not shown) [Compound 127]	100	100	
CC1CC(C)(C)OC(c2ccc(CN3CCC(C(O)(c4ccc(OC(F)(F)F)cc4)c4ccc(OC(F)(F)F)cc4)CC3)cc2)O1 (stereo not shown) [Compound 78]	100	100	
CC1CCOC(c2ccc(CN3CCC(C(O)(c4ccc(OC(F)(F)F)cc4)c4ccc(OC(F)(F)F)cc4)CC3)cc2)O1 (stereo not shown) [Compound 47]	67	100	
OC(c1ccc(OC(F)(F)F)cc1)(c1ccc(OC(F)(F)F)cc1)C1CCN(Cc2ccc(CC3OCCO3)cc2)CC1 [Compound 183]	100	100	
CC1(C)OC(c2ccc(C[N+]3([O-])CCC(C(O)(c4ccc(OC(F)(F)F)cc4)c4ccc(OC(F)(F)F)cc4)CC3)cc2)OC1(C)C (stereo not shown) [Compound 126]	100	100	
C[C@H]1OC(c2ccc(CN3CCC(C(O)(c4ccc(OC(F)(F)F)cc4)c4ccc(OC(F)(F)F)cc4)CC3)cc2)O[C@@H]1C (relative stereo) [Compound 120]	100	100	
COCC1COC(COc2ccc(CN3CCC(C(O)(c4ccc(OC(F)(F)F)cc4)c4ccc(OC(F)(F)F)cc4)CC3)cc2)O1 (stereo not shown) [Compound 195]	100	100	
Cc1cc(CN2CCC(C(O)(c3ccc(OC(F)(F)F)cc3)c3ccc(OC(F)(F)F)cc3)CC2)ccc1C1OCCO1 [Compound 169]		100	100
COCC1COC(c2ccc(CN3CCC(C(O)(c4ccc(OC(F)(F)F)cc4)c4ccc(OC(F)(F)F)cc4)CC3)cc2)O1 (stereo not shown) [Compound 51]	100	100	
CC1COC(c2ccc(CN3CCC(C(c4ccc(OC(F)(F)F)cc4)c4ccc(OC(F)(F)F)cc4)CC3)cc2)O1 (stereo not shown) [Compound 178]	100	100	
CCC1COC(c2ccc(CN3CCC(C(O)(c4ccc(OC(F)(F)F)cc4)c4ccc(OC(F)(F)F)cc4)CC3)cc2)O1 (stereo not shown) [Compound 48]	100	100	
CC1(C)COC(c2ccc(C[N+]3([O-])CCC(C(O)(c4ccc(OC(F)(F)F)cc4)c4ccc(OC(F)(F)F)cc4)CC3)cc2)O1 (stereo not shown) [Compound 112]	100	100	
OC(c1ccc(OC(F)(F)F)cc1)(c1ccc(OC(F)(F)F)cc1)C1CCN(Cc2ccc(C3O[C@H]4COC[C@H]4O3)cc2)CC1 (stereo partly shown) [Compound 116]	100	100	
CC1CC(C)(C)OC(c2ccc(C[N+]3([O-])CCC(C(O)(c4ccc(OC(F)(F)F)cc4)c4ccc(OC(F)(F)F)cc4)CC3)cc2)O1 (stereo not shown) [Compound 80]	100	100	
[O-][N+]1(Cc2ccc(C3O[C@@H]4CCCC[C@H]4O3)cc2)CCC(C(O)(c2ccc(OC(F)(F)F)cc2)c2ccc(OC(F)(F)F)cc2)CC1 (relative stereo) [Compound 128]	100	100	
[O-][N+]1(Cc2ccc(OCC3OCCO3)cc2)CCC(C(O)(c2ccc(OC(F)(F)F)cc2)c2ccc(OC(F)(F)F)cc2)CC1 (stereo not shown) [Compound 188]	100	100	
OC(c1ccc(OC(F)(F)F)cc1)(c1ccc(OC(F)(F)F)cc1)C1CCN(Cc2ccc(C3(c4ccoc4)OCCO3)cc2)CC1 [Compound 99]	100	100	
OC(c1ccc(OC(F)(F)F)cc1)(c1ccc(OC(F)(F)F)cc1)C1CCN(Cc2ccc(C3OCCS3)cc2)CC1 (stereo not shown) [Compound 17]	100	100	
[O-][N+]1(Cc2ccc(C3OCC4OC4CO3)cc2)CCC(C(O)(c2ccc(OC(F)(F)F)cc2)c2ccc(OC(F)(F)F)cc2)CC1 (stereo not shown) [Compound 105]	100	100	
